According to article PMC8175350, “Drug repurposing screens identify chemical entities for the development of COVID-19 interventions” (Nature Communications, 2021):
Read-outs that look alike come from different tables or passages of the source. Residues, ends and D or L forms follow the SMILES beside them. *: point of attachment. Cbz = O=C(OCc1ccccc1)*; CHN2 = [N-]=[N+]=C*

Assays:
SARS-CoV-2 [1] = assay: microbe, parasite or virus in culture; format: cell-based; conditions: for Emax: Severe acute respiratory syndrome coronavirus 2, HeLa-ACE2, 24 h, read-out: HeLa-ACE2 CoV-2 Sinf Average; for EC50: Severe acute respiratory syndrome coronavirus 2, HeLa-ACE2, detail column, read-out: HeLa-ACE2 CoV-2 EC50 GeoMean; for HeLa-ACE2 SI: selectivity index, uninfected HeLa-ACE2 CC50 / SARS-CoV-2 EC50
[2] = Uninfected HeLa-ACE2 24 h live/dead cytotoxicity counter screen; format: cell-based, human; conditions: human, uninfected HeLa-ACE2 cells; read-out: HeLa-ACE2 uninfected cytotoxicity CC50 GeoMean
SARS-CoV-2 [3] = assay: microbe, parasite or virus in culture; format: cell-based; conditions: Severe acute respiratory syndrome coronavirus 2, Calu-3; read-out: Calu-3 CoV-2 EC50 GeoMean
SARS-CoV-2 [4] = assay: microbe, parasite or virus in culture; format: cell-based; conditions: for EC50: Severe acute respiratory syndrome coronavirus 2, HeLa-ACE2, detail column, read-out: HeLa-ACE2 TOA CoV-2 EC50 GeoMean
HeLa-ACE2 cells [5] = assay: Total cell count in the HeLa-ACE2 TOA (time of addition) assay; format: cell-based, human; conditions: Homo sapiens, HeLa-ACE2; read-out: HeLa-ACE2 TOA cell count EC50 GeoMean
HeLa-ACE2 cells [6] = assay: cells; conditions: Homo sapiens; for EC50: HeLa-ACE2, read-out: HeLa-ACE2 cell count EC50 GeoMean
Calu-3 cells [7] = assay: cells; conditions: Homo sapiens, Calu-3, read-out: Calu-3 cell count EC50 GeoMean
in vitro [8] = conditions: human
HepG2 = HepG2 72 h CellTiter-Glo cytotoxicity; conditions: 72 h
[9] = HEK293T 72 h CellTiter-Glo cytotoxicity; conditions: human, HEK293T cells
SARS-CoV-2 [10] = format: cell-based; conditions: combination with remdesivir
Calu-3 cells [11] = tested on: Calu-3 cells
in vitro [12] = conditions: human, Calu-3 uninfected cytotoxicity CC50 GeoMean
in vitro [13] = conditions: human; remark: listed apart in the source
HeLa-ACE2 cells [14] = assay: Uninfected HeLa-ACE2 24 h live/dead cytotoxicity counter screen; format: cell-based, human; conditions: human, uninfected HeLa-ACE2 cells, 24 h

Row | SMILES | Emax (SARS-CoV-2 [1]) [%] | EC50 (SARS-CoV-2 [1]) [nM] | HeLa-ACE2 SI (SARS-CoV-2 [1]) | CC50 at 24 h [2] [µM] | EC50 (SARS-CoV-2 [3]) [µM] | TOA:HeLa-ACE2 EC50 Ratio (SARS-CoV-2 [4]) | EC50 (SARS-CoV-2 [4]) [µM] | EC50 (HeLa-ACE2 cells [5]) [µM] | EC50 (HeLa-ACE2 cells [6]) [µM] | EC50 (Calu-3 cells [7]) [µM] | CC50 (in vitro [8]) [µM] | HepG2 72-hour cytotoxicity Sinf Average (HepG2) [%] | CC50 at 72 h [9] [µM] | HeLa-ACE2 synergy score with remdesivi (SARS-CoV-2 [10]) | uninfected Calu-3 CC50 (Calu-3 cells [11]) | Emax (HeLa-ACE2 cells [6]; HeLa-ACE2, 24 h, read-out: HeLa-ACE2 cell count Sinf Average) [%] | CC50 at 48 h (in vitro [12]) [µM] | CC50 at 72 h (in vitro [8]) [µM] | CC50 at 72 h (in vitro [13]) [µM] | HeLa-ACE2 uninfected cytotoxicity Sinf Average (HeLa-ACE2 cells [14]) [%]
1 | CC[C@H]1OC(=O)[C@H](C)[C@@H](O[C@H]2C[C@@](C)(OC)[C@@H](O)[C@H](C)O2)[C@H](C)[C@@H](O[C@@H]2O[C@H](C)C[C@H](N(C)C)[C@H]2O)[C@](C)(O)C[C@@H](C)CN(C)[C@H](C)[C@@H](O)[C@]1(C)O [Azithromycin] | 100 | 650 | > 61.26 | > 39.8 | > 9.85 | 14.747 | > 9.59 | > 9.59 | > 9.59 | > 9.85 | > 39.8 | -100 | > 39.8 | – | – | – | – | – | – | –
2 | CCOC(=O)[C@@H]1O[C@H]1C(=O)N[C@@H](CC(C)C)C(=O)N1CCN(Cc2ccc(OC)c(OC)c2OC)CC1 [NCO 700] | 90 | 790 | > 50.44 | > 39.8 | > 9.98 | 12.146 | > 9.59 | > 9.59 | > 5.08 | > 9.98 | – | – | – | 0.209 δ | > 29.867 ×÷ 1.001 (n=3) μM | -26 | > 29.9 | > 39.8 | > 39.8 | –
3 | CC(C)CC(NC(=O)OCc1ccccc1)C(=O)NC(C(=O)NCC(=O)C=[N+]=[N-])C(C)C (stereo not drawn) [Z LVG CHN2] (Cbz-Leu-Val-Gly-CHN2; configuration not given here) | 87 | 72 | > 554.29 | > 39.8 | > 9.98 | 133.491 | > 9.59 | > 9.59 | > 9.59 | > 9.98 | – | – | – | – | > 29.867 ×÷ 1.001 (n=3) μM | – | > 29.9 | > 39.8 | > 39.8 | -100
